Columns and labels:
[1] = target: T1, CNGA2:A4 channels (Rattus norvegicus, UniProt Q00195+Q64359); experiment: Concentration-activation relationship, inside-out patch-clamp; format: biochemical
T1 construct: expressed in transfected cells; host or cells: Xenopus laevis oocytes (cRNA injection), excised inside-out patches
Description: (§1) Patch-clamp experiments were performed using an Axopatch 200B amplifier (Molecular Devices LLC, CA, U.S.A.) in the inside-out configuration. The patch pipettes for recording of macroscopic currents were pulled from borosilicate glass tubing (outer diameter 2.0 mm, inner diameter 1.0 mm; Hilgenberg GmbH, Germany). […] The patches were formed as pushed inside-out patches. […] Cyclic nucleotide concentration jumps were performed using a double-barreled glass pipette mounted on a piezo-driven device. Intracellular (bath) and extracellular (pipette) solutions contained (mM) 150 KCl, 1 EGTA, 5 Hepes, pH = 7.4 with KOH. […] Currents in the absence of the cyclic nucleotide were subtracted. All patches included in this study were first tested for channel expression in the presence of a saturating ligand concentration. Only patches with large current, i.e. a large number of channels, were included in our statistics. The currents were measured at +10 mV or, if mentioned, at +100 mV. Fits of equations to data points were performed with the 8.1G® software (OriginLab Corporation, Northampton, U.S.A.). Concentration-activation relationships were obtained by relating the actual current amplitude, I, to the maximum current amplitude elicited by a saturating concentration of ligand, Imax, and plotting this ratio as function of the ligand concentration, x. The concentration-activation data were fitted using the Hill equation where EC50 is the ligand concentration of half maximum effect and H the Hill coefficient.

[2] = target: T2, CNGA2:B1b channels (Rattus norvegicus, UniProt A0A8I5ZN27+Q00195); experiment: as above; format: biochemical
T2 construct: expressed in transfected cells; host or cells: Xenopus laevis oocytes (cRNA injection), excised inside-out patches
T2 sequence (Q00195 whole entry): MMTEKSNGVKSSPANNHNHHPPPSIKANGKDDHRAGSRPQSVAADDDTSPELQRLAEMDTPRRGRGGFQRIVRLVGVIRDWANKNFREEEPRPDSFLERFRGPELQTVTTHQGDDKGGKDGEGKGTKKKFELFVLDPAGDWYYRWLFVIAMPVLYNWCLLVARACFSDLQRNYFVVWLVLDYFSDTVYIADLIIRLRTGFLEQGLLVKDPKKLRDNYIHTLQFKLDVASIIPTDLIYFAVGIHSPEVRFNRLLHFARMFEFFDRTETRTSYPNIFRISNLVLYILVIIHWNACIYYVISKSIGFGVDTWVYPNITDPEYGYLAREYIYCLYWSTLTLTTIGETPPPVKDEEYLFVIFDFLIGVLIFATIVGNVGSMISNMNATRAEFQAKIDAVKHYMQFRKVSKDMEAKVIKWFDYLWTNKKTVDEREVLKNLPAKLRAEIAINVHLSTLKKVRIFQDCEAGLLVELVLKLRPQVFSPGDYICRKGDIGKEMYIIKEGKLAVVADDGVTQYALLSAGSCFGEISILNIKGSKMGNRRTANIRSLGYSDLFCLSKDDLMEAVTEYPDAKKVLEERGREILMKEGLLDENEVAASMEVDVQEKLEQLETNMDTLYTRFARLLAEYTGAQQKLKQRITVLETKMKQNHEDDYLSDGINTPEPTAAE
T2 sequence (A0A8I5ZN27 1-858 isoform A0A8I5ZN27-2): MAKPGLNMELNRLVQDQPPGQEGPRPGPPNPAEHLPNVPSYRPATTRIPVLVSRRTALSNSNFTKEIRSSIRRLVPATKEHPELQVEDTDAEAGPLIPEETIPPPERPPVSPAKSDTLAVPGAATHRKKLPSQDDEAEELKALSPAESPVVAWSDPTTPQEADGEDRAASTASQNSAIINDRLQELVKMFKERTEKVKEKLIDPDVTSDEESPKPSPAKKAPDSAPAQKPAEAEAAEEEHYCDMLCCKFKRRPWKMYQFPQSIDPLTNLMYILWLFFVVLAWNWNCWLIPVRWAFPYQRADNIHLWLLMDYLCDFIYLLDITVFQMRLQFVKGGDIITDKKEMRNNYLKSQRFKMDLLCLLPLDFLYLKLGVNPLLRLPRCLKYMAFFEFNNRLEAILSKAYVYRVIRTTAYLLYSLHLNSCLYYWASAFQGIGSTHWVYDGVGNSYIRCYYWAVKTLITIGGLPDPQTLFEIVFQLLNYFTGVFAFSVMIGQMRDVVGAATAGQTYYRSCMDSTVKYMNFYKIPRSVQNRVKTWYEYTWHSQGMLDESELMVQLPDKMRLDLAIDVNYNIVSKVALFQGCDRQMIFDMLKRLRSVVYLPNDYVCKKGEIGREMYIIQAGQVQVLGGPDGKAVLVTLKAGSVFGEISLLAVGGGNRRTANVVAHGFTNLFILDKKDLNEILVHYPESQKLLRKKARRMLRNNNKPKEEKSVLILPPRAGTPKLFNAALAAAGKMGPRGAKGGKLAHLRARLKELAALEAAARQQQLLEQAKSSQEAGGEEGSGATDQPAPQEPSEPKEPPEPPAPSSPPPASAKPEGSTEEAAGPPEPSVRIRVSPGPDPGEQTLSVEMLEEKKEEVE
Description: as §1

[3] = test system: concatameric homotetrameric CNGA2 channels with three disabled subunits; set-up: method as in PMID 26858151; conditions: read-out: EC50 of one CNGA2 subunit; cited from earlier work
[4] = target: T3, CNGA2RE:A4RE:B1bRE (Rattus norvegicus, UniProt A0A8I5ZN27+Q00195+Q64359, R1106E/R430E/R538E); experiment: Ligand binding, confocal patch-clamp fluorometry; set-up: key to Ligand binding to CNGA4 / Ligand binding to CNGB1b: +: ligand binding to the respective modulatory subunits was either observed or not; −: ligand binding to the respective modulatory subunits was either observed or not
T3 construct: expressed in transfected cells; host or cells: Xenopus laevis oocytes (cRNA injection), excised inside-out patches
T3 sequence (Q00195 whole entry R538E): as the sequence (Q00195 whole entry) above, with R538E counted along it
T3 sequence (Q64359 whole entry R430E): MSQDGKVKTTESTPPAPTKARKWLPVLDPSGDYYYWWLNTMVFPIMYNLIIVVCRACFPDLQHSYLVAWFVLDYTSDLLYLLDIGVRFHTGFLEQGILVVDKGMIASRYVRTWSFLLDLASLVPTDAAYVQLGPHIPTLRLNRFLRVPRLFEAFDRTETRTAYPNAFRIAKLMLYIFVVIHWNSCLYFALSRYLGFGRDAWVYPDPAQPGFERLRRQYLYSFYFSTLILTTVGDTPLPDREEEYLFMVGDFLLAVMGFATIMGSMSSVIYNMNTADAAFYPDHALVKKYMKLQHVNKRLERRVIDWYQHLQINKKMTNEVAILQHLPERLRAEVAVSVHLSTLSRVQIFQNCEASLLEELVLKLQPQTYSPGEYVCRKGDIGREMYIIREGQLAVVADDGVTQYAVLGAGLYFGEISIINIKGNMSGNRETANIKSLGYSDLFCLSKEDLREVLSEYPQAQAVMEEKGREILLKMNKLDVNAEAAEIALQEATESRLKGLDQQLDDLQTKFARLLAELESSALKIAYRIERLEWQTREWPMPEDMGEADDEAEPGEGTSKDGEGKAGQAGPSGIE
T3 sequence (A0A8I5ZN27 1-858 isoform A0A8I5ZN27-2 R657E): as the sequence (A0A8I5ZN27 1-858 isoform A0A8I5ZN27-2) above, with R657E counted along it
Excerpt: (§2) The channels to be studied were expressed in Xenopus oocytes. We first tested the subunit composition in our channels when coexpressing different combinations of subunits by single-channel recordings. For CNGA2:A4, CNGA2:B1b and CNGA2:A4:B1b channels we exclusively obtained the specific and easily distinguishable single-channel activity reported earlier when injecting respective amounts of RNA[7][13]. We therefore assumed that the channels formed had always the expected subunit composition. The specific binding of cyclic nucleotides and the activation of the CNG channels were measured in parallel by means of confocal patch-clamp fluorometry in excised patches, using fluorescent cyclic nucleotide derivatives. The method has been described previously.
(§3) To verify the hypothesis that the CNGB1b subunit in CNGA2:A4:B1b channels binds cyclic nucleotides, we coexpressed CNGB1b with CNGA4RE and either CNGA2RE or CNGA2TM and measured ligand binding in the presence of 10 μM fcGMP. […] To verify the specificity of the binding to the CNGB1b subunit in these heterotetrameric channels, we coexpressed the CNGB1bRE subunit with CNGA2RE and CNGA4RE.
(§4) The ligand binding was measured in macropatches by patch-clamp fluorometry[41][42] combined with confocal microscopy. […] Recordings were performed with an LSM 510 or 710 confocal microscope (Zeiss, Jena, Germany) and were triggered by the ISO3 software (MFK, Niedernhausen, Germany). To distinguish between the fluorescence of the unbound ligands from that of the bound ligands, a second dye, DY647 (Dyomics, Jena, Germany), was added to the bath solution. The 543-nm and 633-nm lines of a He-Ne laser were used to excite fcAMP/fcGMP and DY647, respectively. The method of confocal patch-clamp fluorometry has been described in detail previously.

[5] = target: T4, CNGA2TM:A4RE:B1b (Rattus norvegicus, UniProt A0A8I5ZN27+Q00195+Q64359, R430E/T539M); experiment: Ligand binding, confocal patch-clamp fluorometry; set-up: key to Ligand binding to CNGA4 / Ligand binding to CNGB1b: +: ligand binding to the respective modulatory subunits was either observed or not; −: ligand binding to the respective modulatory subunits was either observed or not
T4 construct: expressed in transfected cells; host or cells: Xenopus laevis oocytes (cRNA injection), excised inside-out patches
T4 sequence (Q00195 whole entry T539M): as the sequence (Q00195 whole entry) above, with T539M counted along it
T4 sequence (Q64359 whole entry R430E): as the sequence (Q64359 whole entry R430E) above
T4 sequence (A0A8I5ZN27 1-858 isoform A0A8I5ZN27-2, stated change not applied): as the sequence (A0A8I5ZN27 1-858 isoform A0A8I5ZN27-2) above
Excerpt: as §2, §3, §4

[6] = test system: CNGA2TM:A4 channels; set-up: method as in PMID 22786723; conditions: cited from earlier work
[7] = 10 μM, construct CNGA2RE:A4RE:B1bRE
[8] = 10 μM, construct CNGA2TM:A4RE:B1b

T1 sequence (Q00195 whole entry): as the sequence (Q00195 whole entry) above
T1 sequence (Q64359 whole entry): as the sequence (Q64359 whole entry R430E) above, with E430R counted along it

| Compound | EC50 ([1]; Equation 1) | H ([1]; Hill coefficient) | EC50 ([2]; Equation 1) | H ([2]; Hill coefficient) | EC50 [3] | binding (in words) ([4]; 10 μM fcGMP, CNGB1bRE with CNGA2RE and CNGA4RE) | Ligand binding to CNGA4 [4, 7] | Ligand binding to CNGB1b [4, 7] | binding to the CNGB1b subunit (in words) ([5]; 10 μM fcGMP, CNGB1b with CNGA4RE and CNGA2TM) | Ligand binding to CNGA4 [5, 8] | Ligand binding to CNGB1b [5, 8] | degree of activation induced by binding to CNGA4 ([6]; CNGA2TM:A4 channels) | EC50 ([6]; in the presence of CNGA2TM only, read-out: EC50,h value for CNGA4) |
| --- | --- | --- | --- | --- | --- | --- | --- | --- | --- | --- | --- | --- | --- |
| Nc1nc2c(ncn2[C@@H]2O[C@@H]3COP(=O)(O)O[C@H]3[C@H]2O)c(=O)[nH]1 [cGMP] | 1280 nM | 1.7 | 1900 nM | 2.0 | 22.2 µM |  |  |  |  |  |  |  |  |
| 8-[DY-547]-AET-cGMP [fcGMP] |  |  |  |  |  | essentially diminished | − | − | robust binding | − | + | ~ 12% | 6.8 µM |
